From patent publication US12590093B2, “Indolo[2′,3′:3,4]pyrido[2,1-b]quinazoline compound and use thereof” (INSTITUTE OF MEDICINAL BIOTECHNOLOGY CHINESE ACADEMY OF …, priority 2019, dated 2026)

Key:
PPARγ = target: T1, PPARγ (Homo sapiens, UniProt P37231); assay: Nuclear receptor reporter gene transient transfection (pBIND-hPPARs-LBD) in HepG2 cells, PPARγ; format: cell-based; conditions: FIG. 2, result in words
T1 construct: expressed in transfected cells; host or cells: HepG2
T1 sequence (P37231 238-503 limits assumed): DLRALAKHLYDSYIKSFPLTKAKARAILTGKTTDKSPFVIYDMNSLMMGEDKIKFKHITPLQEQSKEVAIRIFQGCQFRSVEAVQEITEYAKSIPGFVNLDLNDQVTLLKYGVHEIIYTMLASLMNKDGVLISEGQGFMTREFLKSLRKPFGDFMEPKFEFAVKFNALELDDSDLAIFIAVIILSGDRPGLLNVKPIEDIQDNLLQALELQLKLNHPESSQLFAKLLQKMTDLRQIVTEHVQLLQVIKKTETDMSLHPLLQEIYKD
Protocol: HepG2 cells in logarithmic growth phase were digested, seeded into the white/clear 96-well plate at a density of 5×10^4 cells/well/100 μL until the cells grew to about 90% confluence and in good condition. 0.5 μL liposome (Lipofectamine® 2000) diluted with blank medium to 25 μL per well and incubated at room temperature for 5 min. The corresponding plasmids DNA (nuclear receptor plasmid:Gal4=1:10) were diluted in blank DMEM medium to 25 μL/well (mixing of two plasmids), then mixed evenly with the diluted liposome, and incubated for 20 min at 37° C. The DNA-liposome complex (50 μL per well) was added with the DMEM complete medium (100 μL per well) and mixed thoroughly to obtain a DNA-liposome complex cell culture. The cell medium was discarded, and replaced with the DNA-liposome complex cell culture (150 μL/well) (37° C., 5% CO2). After 6 h, the DNA-liposome complex cell culture medium was discarded, and 200 μL serum-free DMEM medium containing the compound at an appropriate concentration was added to each test well, and cultured for 18-24 h. The cell Luciferase activity was measured by the method as described in the Luciferase Assay System.

ApoE^−/− mice = assay: Serum inflammatory factor levels in ApoE−/− mice (ELISA); format: in vivo; conditions: 5 mg/kg intragastrically, 12 weeks, HFD
Protocol: (§1) 6-week-old male C57/BL6 ApoE^−/− mice were fed on normal chaw diet for one week. The mice were randomly divided into three groups (control group, high-fat diet model group, and treatment group, 12 mice per group) according to the body weight. From 7-week-old, the high-fat diet model group and the treatment group were fed on a high fat diet (HFD) (0.15% cholesterol and 20% fat), and the control group was fed on normal chow diet. The treatment group (R3) mice were administered intragastrically with TR3 (5 mg/kg). The control group and the high-fat diet model group mice were intragastrically administered with sodium carboxymethylcellulose (CMC-Na) solution. After 12 weeks of administration, all mice were fasted overnight. The blood sample was taken from the retro-orbital plexus, collected in a EP tube, and then centrifuged for 15 min (2500 rpm). The centrifuged serum (upper layer) was transferred to new EP tubes (divided into two aliquots) and stored at −20° C. for further use. The mice were fixed, and the skin was cut open along the midline of the abdomen to the neck. The abdominal cavity was cut open to collect the fresh liver tissue. The Liver tissue was put into 3 freezing tubes, and then immediately put into liquid nitrogen for subsequent detection of liver lipid detection and extraction of RNA and protein. The thorax was cut open to expose the heart. The heart was perfused with 10 ml PBS, and then fixed by perfusion with 4% paraformaldehyde solution until the liver turned white. The fixed liver was taken out and placed in a six-well plate containing 4% paraformaldehyde solution for further fixation. The full-length aorta (from the ascending aorta to the common iliac arteries) was isolated and placed in a six-well plate containing 4% paraformaldehyde solution. The aorta was fixed in 4% paraformaldehyde solution overnight and then stored in 20% sucrose solution at 4° C.
The levels of IL-1β, IL-18, IL-6, TNF-α and IL-10 in the serum of ApoE^−/− mice were measured by using the corresponding ELISA kits (Nanjing Sen Bei Jia Biotechnology Co., Ltd., Nanjing, China). Standard dilution and addition: the standard was diluted by gradient, and 10 wells on the coated ELISA plate were set for standard addition. Sample addition: blank wells and sample wells were set separately. The sample wells of the coated ELISA plates were first added with 40 μL sample diluent, and then added 10 μL sample (the final dilution of the sample is 5-fold). […] Assay detection: the absorbance at 450 nm of each well was read with the absorbance at 450 nm of the blank well as zero, and this process was performed within 15 min after the stop solution was added.

NLRP3 inflammasome [1] = assay: Western-blot of NLRP3 inflammasome proteins in liver of ApoE−/− mouse and J774A1 cells; format: in vivo, mice
Protocol: as §1
(§2) When animal tissues were used to prepare protein samples, the tissues were firstly homogenized and lysed in the RIPA lysis buffer. The subsequent steps were the same as those for preparing protein samples from cells. When cell supernatants were used to prepare protein samples, the supernatants were freeze-dried, needed to be extracted using a protein recovery kit (Applygen, Beijing, China), and then analyzed by western-blot.
The western-blot was used to detect the effects of TR3 on the activation of NLRP3 inflammasome and other related proteins in the liver of ApoE^−/− mouse and J774A1 cells.

NF-κB signaling pathway = assay: Western-blot of NF-κB signaling pathway in liver of ApoE−/− mice; format: in vivo; conditions: FIG. 7
Protocol: 6-week-old male C57/BL6 ApoE^−/− mice were fed on normal chaw diet for one week. The mice were randomly divided into three groups (control group, high-fat diet model group, and treatment group, 12 mice per group) according to the body weight. From 7-week-old, the high-fat diet model group and the treatment group were fed on a high fat diet (HFD) (0.15% cholesterol and 20% fat), and the control group was fed on normal chow diet. The treatment group (R3) mice were administered intragastrically with TR3 (5 mg/kg). The control group and the high-fat diet model group mice were intragastrically administered with sodium carboxymethylcellulose (CMC-Na) solution. After 12 weeks of administration, all mice were fasted overnight. The blood sample was taken from the retro-orbital plexus, collected in a EP tube, and then centrifuged for 15 min (2500 rpm). The centrifuged serum (upper layer) was transferred to new EP tubes (divided into two aliquots) and stored at −20° C. for further use. […]
When animal tissues were used to prepare protein samples, the tissues were firstly homogenized and lysed in the RIPA lysis buffer. […] When cell supernatants were used to prepare protein samples, the supernatants were freeze-dried, needed to be extracted using a protein recovery kit (Applygen, Beijing, China), and then analyzed by western-blot. […]

NLRP3 inflammasome [2] = assay: NLRP3 inflammasome in J774A.1 cells with MAPK agonist Anisomycin; format: cell-based; conditions: MAPK signaling pathway agonist Anisomycin added, FIG. 9
Text: as §2
After that, the MAPK signaling pathway agonist Anisomycin and TR3 were added into J774A-1 cells.

ABCA1 = ABCA1 up-regulation, luciferase reporter in ABCA1P-LUC HepG2 cells; format: cell-based; conditions: co-incubated with MK886, GW9662, GSK3787 or GGPP
[3] = liver of ApoE−/− mouse and J774A1 cells, western-blot, FIG. 6

Question: `c1ccc2c(c1)CN1CCc3c([nH]c4ccccc34)C1=N2` [TR3, 5,7,8,13-tetrahydroindolo[2′,3′:3,4]pyrido[2,1-b]quinazoline] was tested. Which “activation of PPARγ” value (PPARγ) did it give?
Answer: The value was “simultaneously activated PPARα/γ/δ and LXRα/β to a certain extent”.

Question: And the “level of IL-1β in mouse serum” value (ApoE^−/− mice)?
Answer: Its value is “decreased the levels of IL-1β, IL-18 and IL-6 significantly”.

Question: And the “level of IL-6 in mouse serum” value (ApoE^−/− mice)?
Answer: Its value is “decreased the levels of IL-1β, IL-18 and IL-6 significantly”.

Question: And the “level of IL-18 in mouse serum” value (ApoE^−/− mice)?
Answer: The value was “decreased the levels of IL-1β, IL-18 and IL-6 significantly”.

Question: What about the “level of TNF-α in mouse serum” value (ApoE^−/− mice) of the same molecule?
Answer: Its value is “decreased the levels of IL-1β, IL-18 and IL-6 significantly and the level of TNF-α slightly”.

Question: What about the “activation of NLRP3 inflammasome in the liver” value (NLRP3 inflammasome [1]; liver of ApoE−/− mice) of the same molecule?
Answer: Its value is “significantly inhibited”.

Question: What about the “expression of Caspase-1 protein” value (NLRP3 inflammasome [1]; [3]) of the same molecule?
Answer: Its value is “significantly inhibited”.

Question: What about the “expression of IL-1β protein” value (NLRP3 inflammasome [1]; [3]) of the same molecule?
Answer: The value was “significantly inhibited”.

Question: What about the “expression of NLRP3 protein” value (NLRP3 inflammasome [1]; [3]) of the same molecule?
Answer: The value was “significantly inhibited”.

Question: And the “expression of p-IκBα” value (NF-κB signaling pathway)?
Answer: The value was “significantly inhibited”.

Question: And the “expression of p-P65” value (NF-κB signaling pathway)?
Answer: Its value is “significantly inhibited”.

Question: And the “inhibitory effect on NLRP3, Caspase-1 and IL-1β with Anisomycin added” value (NLRP3 inflammasome [2])?
Answer: The value was “reduced”.

Question: What about the “up-regulating transcription activity of ABCA1 when co-incubated with nuclear receptor inhibitor” value (ABCA1) of the same molecule?
Answer: The value was “significantly inhibited”.
